Values after ≈ are worked out from the molar mass of the structure shown. Read-outs that look alike come from different tables or passages of the source.
Assays:
[1] = tested on: C. glabrata; experiment: Checkerboard FIC assay in combination with fluconazole (MIC alone and in combination, FICI); assay type: cell-based, Candida glabrata; settings: for FICI of combination resulting in fluconazole MIC of: 2 ug/mL / FICI of combination resulting in fluconazole MIC of: 4 ug/mL / FICI of combination resulting in fluconazole MIC of: 8 ug/mL: FICI calculated using a fluconazole MIC of 16 μg/mL; for FICI of combination resulting in fluconazole MIC of: 2 ug/mL (value in parenthesis) / FICI of combination resulting in fluconazole MIC of: 4 ug/mL (value in parenthesis) / FICI of combination resulting in fluconazole MIC of: 8 ug/mL (value in parenthesis): FICI using a fluconazole MIC of 128 μg/mL; for MIC: Nakaseomyces glabratus; for Concentration of Methylgene compound to synergize fluconazole MIC to 2 ug/mL / Concentration of Methylgene compound to synergize fluconazole MIC to 4 ug/mL / Concentration of Methylgene compound to synergize fluconazole MIC to 8 ug/mL: in combination with fluconazole; for Concentration of Methylgene compound to synergize fluconazole MIC to 2 ug/mL: fluconazole MIC lowered to 2 ug/mL; for Concentration of Methylgene compound to synergize fluconazole MIC to 4 ug/mL: fluconazole MIC lowered to 4 ug/mL; for Concentration of Methylgene compound to synergize fluconazole MIC to 8 ug/mL: fluconazole MIC lowered to 8 ug/mL; for Multiple of compound MIC to synergize fluconazole MIC to 2 ug/mL / Multiple of compound MIC to synergize fluconazole MIC to 4 ug/mL / Multiple of compound MIC to synergize fluconazole MIC to 8 ug/mL: concentration in combination as multiple of the compound's MIC alone; for Multiple of compound MIC to synergize fluconazole MIC to 2 ug/mL: fluconazole MIC 2 ug/mL; for Multiple of compound MIC to synergize fluconazole MIC to 4 ug/mL: fluconazole MIC 4 ug/mL; for Multiple of compound MIC to synergize fluconazole MIC to 8 ug/mL: fluconazole MIC 8 ug/mL
How it was run: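 A fluconazole synergy checkerboard was run against C. glabrata in MOPS-buffered RPMI (pH 7.0) for about 48 h at 35 °C. Each agent was diluted 2-fold, with one row and one column holding each agent alone for MIC determination. FICI was calculated from these MICs, using a 0.5 McFarland inoculum diluted 1:100 per CLSI.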

[2] = tested on: Candida parapsilosis; experiment: Minimal Inhibitory Concentration (MIC) assay, broth microdilution per CLSI; assay type: cell-based; settings: Lodderomyces parapsilosis, read-out: Minimum Inhibitory Concentrations against Yeast Isolates, Candida parapsilosis;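 note: two read times 24 hr and 48 hr of incubation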
How it was run: (§1)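 Read-out is visual: MIC is the lowest compound concentration preventing visible growth after approximately 24-48 hr at 35° C. Testing used CLSI microdilution in MOPS-buffered RPMI (pH 7.0) with serial 1:1 compound dilutions made in DMSO.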

[3] = tested on: Candida albicans; experiment: as above; assay type: cell-based; settings: Candida albicans, read-out: Minimum Inhibitory Concentrations against Yeast Isolates, Candida albicans;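 note: two read times 24 hr and 48 hr of incubation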
How it was run: as §1

[4] = tested on: Candida glabrata; experiment: as above; assay type: cell-based; settings: Nakaseomyces glabratus, read-out: Minimum Inhibitory Concentrations against Yeast Isolates, Candida glabrata;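 note: two read times 24 hr and 48 hr of incubation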
How it was run: as §1

[5] = MIC of the example compound alone against C. glabrata in the checkerboard assay, approximately 48 hr, read-out: Methylgene MIC
[6] = test compound alone, C. glabrata, approx. 48 hr at 35° C., read-out: Compound MIC
[7] = 24 hr reading (first value of cell 24 hr/48 hr)
[8] = 48 hr reading (second value of cell 24 hr/48 hr)

| Compound | FICI of combination resulting in fluconazole MIC of: 2 ug/mL ([1]; C. glabrata) | FICI of combination resulting in fluconazole MIC of: 4 ug/mL ([1]; C. glabrata) | FICI of combination resulting in fluconazole MIC of: 8 ug/mL ([1]; C. glabrata) | FICI of combination resulting in fluconazole MIC of: 2 ug/mL (value in parenthesis) ([1]; C. glabrata) | FICI of combination resulting in fluconazole MIC of: 4 ug/mL (value in parenthesis) ([1]; C. glabrata) | FICI of combination resulting in fluconazole MIC of: 8 ug/mL (value in parenthesis) ([1]; C. glabrata) | MIC [1, 5] | MIC [1, 6] | Concentration of Methylgene compound to synergize fluconazole MIC to 2 ug/mL ([1]; C. glabrata) | Concentration of Methylgene compound to synergize fluconazole MIC to 4 ug/mL ([1]; C. glabrata) | Concentration of Methylgene compound to synergize fluconazole MIC to 8 ug/mL ([1]; C. glabrata) | MIC [2, 7] | MIC [2, 8] | MIC [3, 7] | MIC [3, 8] | MIC [4, 7] | MIC [4, 8] | Multiple of compound MIC to synergize fluconazole MIC to 2 ug/mL [1] | Multiple of compound MIC to synergize fluconazole MIC to 4 ug/mL [1] | Multiple of compound MIC to synergize fluconazole MIC to 8 ug/mL [1] |
| --- | --- | --- | --- | --- | --- | --- | --- | --- | --- | --- | --- | --- | --- | --- | --- | --- | --- | --- | --- | --- |
| CN(C)CCSCC(=O)Nc1cccc(CCCCc2ccc(CC(=O)NO)cc2)c1 [Example 44, 2-(2-(dimethylamino)ethylthio)-N-(3-(4-(4-(2-(hydroxyamino)-2-oxoethyl)phenyl)butyl)phenyl)acetamide] | 0.188 | 0.250 | 0.313 | 0.141 | 0.156 | 0.125 | > 16 µg/mL | > 16 µg/mL | 4 µg/mL | 4 µg/mL | 2 µg/mL | 64 µg/mL (≈ 144 µM) | > 64 µg/mL | > 64 µg/mL | > 64 µg/mL | 16 µg/mL (≈ 36.1 µM) | 64 µg/mL (≈ 144 µM) |  |  |  |
| CC(=O)Nc1cccc(CCCCc2ccc(CC(=O)NO)cc2)c1 [Example 42, 2-(4-(4-(3-acetamidophenyl)butyl)phenyl)-N-hydroxyacetamide] | 0.313 | 0.375 | 0.375 | 0.266 | 0.281 | 0.188 | 16 µg/mL | 16 µg/mL | 4 µg/mL | 4 µg/mL | 2 µg/mL | > 32 µg/mL | > 32 µg/mL | > 32 µg/mL | > 32 µg/mL | 8 µg/mL (≈ 23.5 µM) | 16 µg/mL (≈ 47 µM) | (¼x) | (¼x) | (⅛x) |
| COC(=O)Nc1ccc(CCCCc2ccc(CC(=O)NO)cc2)cc1 [Example 48, methyl 4-(4-(4-(2-(hydroxyamino)-2-oxoethyl)phenyl)butyl) phenylcarbamate] | 0.188 | 0.188 | 0.313 | 0.141 | 0.094 | 0.125 | > 4 µg/mL | > 4 µg/mL | 1 µg/mL | 0.5 µg/mL | 0.5 µg/mL | > 4 µg/mL | > 4 µg/mL | > 4 µg/mL | > 4 µg/mL | > 4 µg/mL | > 4 µg/mL |  |  |  |
| CC(=O)Nc1ccc(CCCCc2ccc(CC(=O)NO)cc2)cc1 [Example 39, 2-(4-(4-(4-acetamidophenyl)butyl)phenyl)-N-hydroxyacetamide] | 0.375 | 0.375 | 0.563 | 0.266 | 0.156 | 0.125 | 16 µg/mL | 16 µg/mL | 4 µg/mL | 2 µg/mL | 1 µg/mL | > 8 µg/mL | > 8 µg/mL | > 8 µg/mL | > 8 µg/mL | > 8 µg/mL | > 8 µg/mL | (¼x) | (⅛x) | ( 1/16x) |
| CC(CCCc1ccc(CC(=O)NO)cc1)c1ccccc1 (stereo not drawn) [Example 30, N-hydroxy-2-(4-(4-phenylpentyl)phenyl)acetamide] | 0.563 | 0.365 | 0.490 | 0.516 | 0.271 | 0.303 | 0.5 µg/mL | 0.5 µg/mL | 0.25 µg/mL | 0.12 µg/mL | 0.12 µg/mL | 0.12 µg/mL (≈ 0.403 µM) | 0.25 µg/mL (≈ 0.841 µM) | 0.5 µg/mL (≈ 1.68 µM) | 0.5 µg/mL (≈ 1.68 µM) | 0.25 µg/mL (≈ 0.841 µM) | 0.5 µg/mL (≈ 1.68 µM) | (½x) | (¼x) | (¼x) |
| O=C(Cc1ccc(CCCC(=O)c2ccccc2)cc1)NO [Example 28, N-hydroxy-2-(4-(4-oxo-4-phenylbutyl)phenyl)acetamide] | 0.313 | 0.250 | 0.313 | 0.266 | 0.156 | 0.125 | 16 µg/mL | 16 µg/mL | 4 µg/mL | 2 µg/mL | 1 µg/mL | > 32 µg/mL | > 32 µg/mL | 32 µg/mL (≈ 108 µM) | 32 µg/mL (≈ 108 µM) | 8 µg/mL (≈ 26.9 µM) | 16 µg/mL (≈ 53.8 µM) | (¼x) | (⅛x) | ( 1/16x) |
